Common to all, as to parameters: species or system chicken
In one test the target is T1, non-glyc-HS2ST H142E (Gallus gallus, UniProt Q76KB1, H142E).
T1 construct: made in house; host or cells: E. coli Origami B (DE3)
T1 sequence (Q76KB1 69-356 H142E limits assumed): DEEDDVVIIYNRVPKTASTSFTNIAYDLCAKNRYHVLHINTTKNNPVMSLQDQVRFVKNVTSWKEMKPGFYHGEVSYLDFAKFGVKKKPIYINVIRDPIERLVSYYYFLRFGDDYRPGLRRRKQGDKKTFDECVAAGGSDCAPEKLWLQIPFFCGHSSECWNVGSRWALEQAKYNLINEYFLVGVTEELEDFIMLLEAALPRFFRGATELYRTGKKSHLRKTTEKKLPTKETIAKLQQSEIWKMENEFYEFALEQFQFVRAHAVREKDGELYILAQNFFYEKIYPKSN
The test can be described thus: BLI equilibrium binding, non-glyc-HS2ST H142E. As to conditions: for Kd: BLI saturation binding curves, n = 3, ± standard error of fit, — = response too weak to fit. From the text:
(§1) To assess whether the inhibitory compounds interact with the active site, point mutations were introduced in non-glyc-HS2ST (Fig. 4a). Four mutants of the catalytic residue (H142A/E/R/K) were created, along with a mutation of the residue that facilitates 2-O-sulfation of IdoA residues (R189A)[27]. Additionally, a negative control (NC) was generated containing multiple mutations of positively charged residues (R189A, R80E, and R184E) that reduced the net charge of each protein monomer by 5. The extent that the mutations affected affinity provided an indication that the ligand had been bound in the active site (Table 1 and Supplementary Fig. 1). While R189A markedly diminished the affinity for all compounds, the NC mutations reduced affinity to immeasurable levels. Removal of the catalytic side chain (H142A) enhanced the affinity of each compound, compared to the WT, by approximately 2–3-fold. Addition of a positive charge at this location (H142K/R) further enhanced the affinity for each compound, so much so that a KD value could be measured even for 2. The H142E mutation diminished the affinity of 5 by half compared to WT, but its effects were less significant for binding to 3 or 4.
(§2) The chicken HS2ST-Maltose Binding Protein (MBP) fusion protein was expressed and purified according to previous studies. The fusion protein was transformed into E. coli Origami B (DE3) cells, cultured at 37 °C until OD600 reached 0.5, then induced with isopropyl-β-D-thiogalactopyranoside and allowed to grow overnight at 20 °C. Cells were sonicated, followed by a two-step purification procedure. Whole-cell supernatant was passed through an amylose column with Tris buffer (25 mM Tris, 500 mM NaCl, pH 7.5). An elution buffer consisted of Tris Buffer with 40 mM Maltose. The amylose column eluent was concentrated and loaded on a Superdex 200 Increase 10/300 GL with PBS buffer (10 mM sodium phosphate, 150 mM NaCl, pH 7.8) to separate trimeric protein from aggregate and independent MBP (Supplementary Fig. 4). All reported mutations formed homotrimeric complexes according to the SEC profiles, including the negative control (NC = R189A/R80E/R184E). Protein concentration was assessed via UV at 280 nm (MW of trimer ~210 KDa, extinction coefficient ~119,000 M^−1 cm^−1 according to ExPASy ProtParam webtool[56]). The trimeric protein preparation was adjusted to 5% glycerol and stored at −20 °C until use. Additional non-glyc-HS2ST constructs were created with the Q5® Mutagenesis kit (New England Biolabs Inc.; cat. # E0554S) and sequenced at the Georgia Genomics Facility at the University of Georgia.
The Octet® RED96 system (FortéBio Inc.) was employed to detect the affinity of the enzymes for specific HS targets. Due to the small size of the glycan and the deep HS2ST binding cavity, the glycan and protein were treated as ligand and analyte, respectively. Varyingly sulfated HS fragments conjugated to biotin linkers were purchased from Glycan Therapeutics Inc. with purities greater than 93% according to HPLC (sequences located in Supplementary Table 1). The glycans were immobilized onto streptavidin (SA) labeled biosensors (FortéBio; cat. #18–5019) at 0.5 µg/mL. Experiments were performed at 25 °C in PBS Buffer (10 mM sodium phosphate, 150 mM NaCl, pH 7.8) with a final concentration of 1X Pall Kinetics buffer (FortéBio Inc; cat. #18–1092). Fresh biosensors and protein samples were used for each measurement (no regeneration step). […]

In another test the target is T2, non-glyc-HS2ST H142K (Gallus gallus, UniProt Q76KB1, H142K).
T2 construct: made in house; host or cells: E. coli Origami B (DE3)
T2 sequence (Q76KB1 69-356 H142K limits assumed): T1 sequence (Q76KB1 69-356 H142E limits assumed) with E74K
The test can be described thus: BLI equilibrium binding, non-glyc-HS2ST H142K. The conditions noted are these: BLI saturation binding curves, n = 3, ± standard error of fit.
Source text: as §1, §2
(§3) The Octet® RED96 system (FortéBio Inc.) was employed to detect the affinity of the enzymes for specific HS targets. […]

The next test has as its target T3, non-glyc-HS2ST H142A (Gallus gallus, UniProt Q76KB1, H142A).
T3 construct: made in house; host or cells: E. coli Origami B (DE3)
T3 sequence (Q76KB1 69-356 H142A limits assumed): T1 sequence (Q76KB1 69-356 H142E limits assumed) with E74A
The test can be described thus: BLI equilibrium binding, non-glyc-HS2ST H142A. The conditions noted are these: BLI saturation binding curves, n = 3, ± standard error of fit.
Source text: as §1, §2, §3

Positions count from the first letter of the chain named.

A word on the Kd: it is the constant that tells how readily two partners part at equilibrium. Lower therefore signals higher affinity.

“GlcNS6S-GlcA-GlcNS3S6S-IdoA2S-GlcNS6S-GlcA~ [Compound 4]”: the Kd was 19 ± 3 nM on non-glyc-HS2ST H142E, 11 ± 2 nM on non-glyc-HS2ST H142K and 10 ± 2 nM on non-glyc-HS2ST H142A.

As to “GlcNS6S-GlcA-GlcNS6S-GlcA-GlcNS6S-GlcA~ [Compound 5]”, the equilibrium dissociation constant (Kd) came out at 140 ± 11 nM at non-glyc-HS2ST H142E, 22 ± 2 nM on non-glyc-HS2ST H142K and 25 ± 2 nM at non-glyc-HS2ST H142A. In addition, on non-glyc-HS2ST H142E (non-glyc-HS2ST H142E versus WT, BLI), the “Diminution of affinity by H142E compared to WT” value is reported as “half”.

As for “GlcNS6S-GlcA-GlcNS6S-IdoA2S-GlcNS6S-GlcA~ [Compound 3]”, the results for the Kd on non-glyc-HS2ST H142E, at non-glyc-HS2ST H142K and at non-glyc-HS2ST H142A were 41 ± 4 nM, 15 ± 2 nM and 20 ± 3 nM, respectively.

As to “GlcNS-GlcA-GlcNS-IdoA2S-GlcNS-GlcA~ [Compound 2]”, the Kd on non-glyc-HS2ST H142E was greater than 500 nM; at non-glyc-HS2ST H142K it was 198 ± 34 nM; at non-glyc-HS2ST H142A it was 460 ± 91 nM.
